According to patent US11519913B2, “Metabolic disorder target” (University of Pittsburgh—Of the Commonwealth System of …, priority 2016, dated 2022):

Tested on: kinases
Experiment: Streamlined CETSA / dMS workflow with staurosporine
Assay type: binding
Details: staurosporine treated vs untreated samples
Text: Initial experiments were designed to employ the ATP inhibitor staurosporine. Staurosporine is well documented as binding several different kinases, and so offers an a priori known binding event for study and method workup. The workflow for CETSA was streamlined. These improvements are based on two advantages: the use of factory made long heated columns for excellent chromatographic, and therefore sample to sample reproducibility, and the cloud computing platform, Chorus, which allows for the alignment and quantification of hundreds of thousands of mass spectrometric signals without the need to first identify said signals, see U.S. Pat. No. 6,906,320 “Mass Spectrometry Data Analysis Techniques,” incorporated herein by reference.
In the staurosporine analysis, the dMS workflow detected 270,822 features that were associated with 108,594 isotope groups. […] An important and distinguishing feature of the dMS workflow is that results are ranked on the basis of the quantitative data, and significant features may then be identified directly by reanalysis of the sample and acquisition of a MS2 spectrum with a retention time and m/z that matches the features of interest. This quantify first, identify second strategy greatly enhances the depth and precision of proteomic analysis compared to workflows that emphasize peptide identification rates. […]

In the case of `CN[C@@H]1C[C@H]2O[C@@](C)([C@@H]1OC)n1c3ccccc3c3c4c(c5c6ccccc6n2c5c31)C(=O)NC4` [staurosporine], the “Features at significance lower than p<0.0001, drug treated versus vehicle, that belong to kinases” value is reported as 13 out of 16 belonged to kinases.
